Molecular target: T1, mitochondrial complex I (NADH dehydrogenase) of mites (Psoroptes ovis, UniProt A0A075XDS2)
T1 sequence (A0A075XDS2 1-300): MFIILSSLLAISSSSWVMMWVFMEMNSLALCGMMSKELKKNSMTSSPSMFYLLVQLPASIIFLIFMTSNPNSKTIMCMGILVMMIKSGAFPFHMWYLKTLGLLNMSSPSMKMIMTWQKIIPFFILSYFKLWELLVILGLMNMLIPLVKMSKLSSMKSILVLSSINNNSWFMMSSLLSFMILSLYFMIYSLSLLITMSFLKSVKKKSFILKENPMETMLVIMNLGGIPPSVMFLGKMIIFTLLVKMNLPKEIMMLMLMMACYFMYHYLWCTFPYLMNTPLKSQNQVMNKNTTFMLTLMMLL
Assay: colorimetric complex I assay at […] nm, isolated mite mitochondria
Format: biochemical
Details: read-out: % inhibition at 20 ng/mL

With `C=CCc1ccc(O)c(OC)c1` [eugenol, 4-allyl-2-methoxyphenol] the inhibition at 0.02 µg/mL was 92.6%.

— PMC8655235 (Journal of Advanced Research, 2020)
